Source: PubChem BioAssay (NCI)
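A five-concentration, 48-hour dose response in 96-well plates underlies each endpoint, interpolated linearly between surrounding concentrations. The concentration for full growth arrest is given as TGI.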

Experiments:
Assay in all cases: growth of human tumour cells (NCI), 48 h
LOX IMVI melanoma = test system: LOX IMVI melanoma
ACHN renal = test system: ACHN renal
UACC-62 melanoma = test system: UACC-62 melanoma
HOP-62 NSCLC = test system: HOP-62 NSCLC
EKVX NSCLC = test system: EKVX NSCLC
NCI-H226 lung = test system: NCI-H226 lung
HS 578T breast = test system: HS 578T breast
SF-295 CNS = test system: SF-295 CNS
DU-145 prostate = test system: DU-145 prostate
HCT-15 colon = test system: HCT-15 colon
SR leukemia = test system: SR leukemia
786-0 renal = test system: 786-0 renal
K-562 leukemia = test system: K-562 leukemia
SK-MEL-2 melanoma = test system: SK-MEL-2 melanoma
HCT-116 colon = test system: HCT-116 colon
A549 NSCLC = test system: A549 NSCLC
COLO 205 colon = test system: COLO 205 colon
SK-MEL-5 melanoma = test system: SK-MEL-5 melanoma
UO-31 renal = test system: UO-31 renal
MDA-N = test system: MDA-N
SNB-19 CNS = test system: SNB-19 CNS
SN12C renal = test system: SN12C renal
SW-620 colon = test system: SW-620 colon
OVCAR-5 ovarian = test system: OVCAR-5 ovarian
A498 renal = test system: A498 renal
OVCAR-4 ovarian = test system: OVCAR-4 ovarian
SK-MEL-28 melanoma = test system: SK-MEL-28 melanoma
IGROV1 ovarian = test system: IGROV1 ovarian
MDA-MB-435 = test system: MDA-MB-435
UACC-257 melanoma = test system: UACC-257 melanoma
MCF7 breast = test system: MCF7 breast
M14 melanoma = test system: M14 melanoma
PC-3 prostate = test system: PC-3 prostate
HOP-92 NSCLC = test system: HOP-92 NSCLC
CCRF-CEM leukemia = test system: CCRF-CEM leukemia
KM12 colon = test system: KM12 colon
U251 CNS = test system: U251 CNS
NCI-H23 lung = test system: NCI-H23 lung
HT29 colon = test system: HT29 colon
SK-OV-3 ovarian = test system: SK-OV-3 ovarian
MDA-MB-231 breast = test system: MDA-MB-231 breast
SF-268 CNS = test system: SF-268 CNS
TK-10 renal = test system: TK-10 renal
NCI/ADR-RES ovarian = test system: NCI/ADR-RES ovarian
MOLT-4 leukemia = test system: MOLT-4 leukemia
SNB-75 CNS = test system: SNB-75 CNS
OVCAR-8 ovarian = test system: OVCAR-8 ovarian
MALME-3M melanoma = test system: MALME-3M melanoma
RPMI-8226 leukemia = test system: RPMI-8226 leukemia
OVCAR-3 ovarian = test system: OVCAR-3 ovarian
NCI-H522 lung = test system: NCI-H522 lung
HCC-2998 colon = test system: HCC-2998 colon
RXF 393 renal = test system: RXF 393 renal
CAKI-1 renal = test system: CAKI-1 renal
NCI-H460 lung = test system: NCI-H460 lung
SF-539 CNS = test system: SF-539 CNS
HL-60(TB) leukemia = test system: HL-60(TB) leukemia
T-47D breast = test system: T-47D breast

C=CCC(NCc1ccccc1)[C@H](OCc1ccccc1)[C@@H]1COC(C)(C)O1 (stereo partly specified)
TGI (LOX IMVI melanoma): 72 µM
TGI (ACHN renal): > 100 µM
TGI (UACC-62 melanoma): > 100 µM
TGI (HOP-62 NSCLC): > 100 µM
TGI (EKVX NSCLC): > 100 µM
TGI (NCI-H226 lung): 34.1 µM
TGI (HS 578T breast): > 100 µM
TGI (SF-295 CNS): 99.6 µM
TGI (DU-145 prostate): > 100 µM
TGI (HCT-15 colon): 64.9 µM
TGI (SR leukemia): 55 µM
TGI (786-0 renal): > 100 µM
TGI (K-562 leukemia): 56.4 µM
TGI (SK-MEL-2 melanoma): 46 µM
TGI (HCT-116 colon): > 100 µM
TGI (A549 NSCLC): > 100 µM
TGI (COLO 205 colon): 41.3 µM
TGI (SK-MEL-5 melanoma): 55.2 µM
TGI (UO-31 renal): 83.1 µM
TGI (MDA-N): > 100 µM
TGI (SNB-19 CNS): > 100 µM
TGI (SN12C renal): > 100 µM
TGI (SW-620 colon): > 100 µM
TGI (OVCAR-5 ovarian): > 100 µM
TGI (A498 renal): > 100 µM
TGI (OVCAR-4 ovarian): > 100 µM
TGI (SK-MEL-28 melanoma): > 100 µM
TGI (IGROV1 ovarian): > 100 µM
TGI (MDA-MB-435): > 100 µM
TGI (UACC-257 melanoma): 58.1 µM
TGI (MCF7 breast): > 100 µM
TGI (M14 melanoma): > 100 µM
TGI (PC-3 prostate): > 100 µM
TGI (HOP-92 NSCLC): 49 µM
TGI (CCRF-CEM leukemia): 69.9 µM
TGI (KM12 colon): > 100 µM
TGI (U251 CNS): > 100 µM
TGI (NCI-H23 lung): > 100 µM
TGI (HT29 colon): 27.1 µM
TGI (SK-OV-3 ovarian): > 100 µM
TGI (MDA-MB-231 breast): > 100 µM
TGI (SF-268 CNS): > 100 µM
TGI (TK-10 renal): 70.8 µM
TGI (NCI/ADR-RES ovarian): > 100 µM
TGI (MOLT-4 leukemia): 83.1 µM
TGI (SNB-75 CNS): > 100 µM
TGI (OVCAR-8 ovarian): > 100 µM
TGI (MALME-3M melanoma): 76.7 µM
TGI (RPMI-8226 leukemia): 44.4 µM
TGI (OVCAR-3 ovarian): > 100 µM

CC1(C)COC(c2ccc(C(=O)c3ccc(Cl)cc3)cc2)=N1
TGI (LOX IMVI melanoma): > 100 µM
TGI (ACHN renal): > 100 µM
TGI (NCI-H522 lung): > 100 µM
TGI (UACC-62 melanoma): > 100 µM
TGI (HCC-2998 colon): > 100 µM
TGI (HOP-62 NSCLC): > 100 µM
TGI (EKVX NSCLC): > 100 µM
TGI (NCI-H226 lung): > 100 µM
TGI (HS 578T breast): > 100 µM
TGI (SF-295 CNS): > 100 µM
TGI (DU-145 prostate): > 100 µM
TGI (HCT-15 colon): > 100 µM
TGI (786-0 renal): > 100 µM
TGI (K-562 leukemia): > 100 µM
TGI (SK-MEL-2 melanoma): > 100 µM
TGI (HCT-116 colon): > 100 µM
TGI (A549 NSCLC): > 100 µM
TGI (COLO 205 colon): > 100 µM
TGI (SK-MEL-5 melanoma): 30.5 µM
TGI (UO-31 renal): > 100 µM
TGI (MDA-N): > 100 µM
TGI (SNB-19 CNS): > 100 µM
TGI (RXF 393 renal): > 100 µM
TGI (SN12C renal): > 100 µM
TGI (SW-620 colon): > 100 µM
TGI (OVCAR-5 ovarian): > 100 µM
TGI (SK-MEL-28 melanoma): > 100 µM
TGI (IGROV1 ovarian): > 100 µM
TGI (MDA-MB-435): > 100 µM
TGI (UACC-257 melanoma): 64.9 µM
TGI (MCF7 breast): > 100 µM
TGI (M14 melanoma): > 100 µM
TGI (PC-3 prostate): > 100 µM
TGI (CAKI-1 renal): > 100 µM
TGI (HOP-92 NSCLC): > 100 µM
TGI (CCRF-CEM leukemia): > 100 µM
TGI (KM12 colon): > 100 µM
TGI (U251 CNS): > 100 µM
TGI (NCI-H23 lung): > 100 µM
TGI (HT29 colon): > 100 µM
TGI (SK-OV-3 ovarian): > 100 µM
TGI (MDA-MB-231 breast): > 100 µM
TGI (SF-268 CNS): > 100 µM
TGI (NCI-H460 lung): > 100 µM
TGI (NCI/ADR-RES ovarian): > 100 µM
TGI (SF-539 CNS): > 100 µM
TGI (MOLT-4 leukemia): > 100 µM
TGI (SNB-75 CNS): > 100 µM
TGI (OVCAR-8 ovarian): > 100 µM
TGI (MALME-3M melanoma): > 100 µM
TGI (RPMI-8226 leukemia): > 100 µM
TGI (OVCAR-3 ovarian): > 100 µM
TGI (HL-60(TB) leukemia): > 100 µM

CC(=O)OCC1OC(n2c(C)c(C(C)=O)c(-c3ccc(Cl)cc3)c(C#N)c2=S)C(OC(C)=O)C(OC(C)=O)C1OC(C)=O (stereo unspecified)
TGI (LOX IMVI melanoma): > 100 µM
TGI (ACHN renal): > 100 µM
TGI (NCI-H522 lung): > 100 µM
TGI (UACC-62 melanoma): > 100 µM
TGI (HCC-2998 colon): > 100 µM
TGI (HOP-62 NSCLC): > 100 µM
TGI (NCI-H226 lung): > 100 µM
TGI (SF-295 CNS): > 100 µM
TGI (DU-145 prostate): > 100 µM
TGI (HCT-15 colon): > 100 µM
TGI (SR leukemia): > 100 µM
TGI (786-0 renal): > 100 µM
TGI (T-47D breast): > 100 µM
TGI (K-562 leukemia): > 100 µM
TGI (SK-MEL-2 melanoma): > 100 µM
TGI (HCT-116 colon): > 100 µM
TGI (A549 NSCLC): > 100 µM
TGI (COLO 205 colon): > 100 µM
TGI (SK-MEL-5 melanoma): > 100 µM
TGI (UO-31 renal): > 100 µM
TGI (MDA-N): > 100 µM
TGI (SNB-19 CNS): > 100 µM
TGI (RXF 393 renal): > 100 µM
TGI (SN12C renal): > 100 µM
TGI (SW-620 colon): > 100 µM
TGI (A498 renal): > 100 µM
TGI (OVCAR-4 ovarian): > 100 µM
TGI (SK-MEL-28 melanoma): > 100 µM
TGI (IGROV1 ovarian): > 100 µM
TGI (MDA-MB-435): > 100 µM
TGI (UACC-257 melanoma): > 100 µM
TGI (MCF7 breast): > 100 µM
TGI (M14 melanoma): > 100 µM
TGI (PC-3 prostate): > 100 µM
TGI (HOP-92 NSCLC): > 100 µM
TGI (CCRF-CEM leukemia): > 100 µM
TGI (KM12 colon): > 100 µM
TGI (U251 CNS): > 100 µM
TGI (NCI-H23 lung): > 100 µM
TGI (HT29 colon): > 100 µM
TGI (SK-OV-3 ovarian): > 100 µM
TGI (MDA-MB-231 breast): > 100 µM
TGI (SF-268 CNS): > 100 µM
TGI (TK-10 renal): > 100 µM
TGI (NCI-H460 lung): > 100 µM
TGI (NCI/ADR-RES ovarian): > 100 µM
TGI (SF-539 CNS): > 100 µM
TGI (MOLT-4 leukemia): > 100 µM
TGI (SNB-75 CNS): > 100 µM
TGI (OVCAR-8 ovarian): > 100 µM
TGI (MALME-3M melanoma): > 100 µM
TGI (OVCAR-3 ovarian): > 100 µM
TGI (HL-60(TB) leukemia): > 100 µM
